From patent publication US20090018150A1, “5-Ht2b Receptor Antagonists” (ASTERAND UK LIMITED, priority 2003, published 2009)
Counter-ions that a name gives are not always drawn.

Assays:
[1] = target: T1, human cloned 5-HT2B receptors (Homo sapiens, UniProt P41595); assay: Human cloned 5-HT2B receptor binding assay; conditions: [3H]LSD (1 nM) displacement, membranes of CHO-K1 cells expressing cloned 5-HT2B receptor; read-out: 5-HT2B pKi (converted)
T1 construct: expressed in transfected cells; host or cells: CHO-K1
T1 sequence (P41595 whole entry): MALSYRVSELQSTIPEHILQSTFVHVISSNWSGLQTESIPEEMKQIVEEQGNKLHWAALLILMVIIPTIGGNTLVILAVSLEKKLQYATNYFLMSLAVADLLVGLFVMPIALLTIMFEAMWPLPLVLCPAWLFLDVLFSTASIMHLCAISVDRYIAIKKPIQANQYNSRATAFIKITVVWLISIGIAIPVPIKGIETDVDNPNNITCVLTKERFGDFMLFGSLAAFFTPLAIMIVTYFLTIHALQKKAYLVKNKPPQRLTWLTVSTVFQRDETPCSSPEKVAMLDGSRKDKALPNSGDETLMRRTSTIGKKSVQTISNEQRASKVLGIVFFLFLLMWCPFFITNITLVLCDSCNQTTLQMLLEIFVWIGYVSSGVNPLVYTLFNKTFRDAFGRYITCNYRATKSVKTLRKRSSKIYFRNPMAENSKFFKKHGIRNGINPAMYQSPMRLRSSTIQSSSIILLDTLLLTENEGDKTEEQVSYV
Protocol: The binding affinity of the compounds for human cloned 5-HT2B receptors was determined using the following assay.
CHO-K1 cells expressing cloned 5-HT2B receptor were maintained in Ultra-CHO medium containing 400 μg/ml of G418, 100 U/ml penicillin, 100 μg/ml streptomycin, 2.5 μg/ml fungizone and 1-foetal bovine serum, in 95/5% O2/CO2 at 37° C. The cells were harvested using 0.25% trypsin and were centrifuged at 800 rpm for 8 minutes. The cells were homogenised in 50 mM HEPES buffer containing 1 mM disodium EDTA and 1 mM PMSF at pH 7.4, using a Dounce homogeniser (20 strokes). The homogenate was centrifuged at 2280 rpm (1000 g) and 4° C. for 10 minutes, after which the supernatant was removed by decanting. The pellet was re-homogenised as above, and the resulting supernatant removed and combined with that already obtained. The supernatant solution was then centrifuged at 18300 rpm (40000 g) for 10 minutes at 4° C. using a Sorvall centrifuge. The supernatant was removed, and the pellet was re-suspended in 50 mM buffer at pH 7.4 using a Ultra-turrax T25 Polytron, before centrifugation again at 40000 g as above. This wash procedure was repeated, after which the membrane preparation was stored at a concentration of 1 mg/ml at −80° C. until use.
The membranes were thawed rapidly and diluted in assay buffer containing Tris-HCl (50 mM, pH 7.4), ascorbic acid (0.1°) and calcium chloride (4 mM). The membranes were homogenised to resuspend them, prior to adding 10 or 15 μg of membranes to assay wells containing [^3H]LSD (1 nM), assay buffer (50 mM Tris, 4 mM calcium chloride and 0.1° ascorbic acid) containing pargyline (10 μM), and the test compounds (1×10^−10 to 1×10^−4M). Non specific binding was determined in the presence of 100 μM 5-HT. After 30 minutes incubation at 37° C., the assay mixture was filtered through a combination of GF-C and GF-B filters, pre-soaked in 1% polyethyleneimine, using a Brandel cell harvester, and were washed three times using 50 mM Tris-HCl. Radioactivity retained on the filters was determined by liquid scintillation counting. For each test compound, the concentration that inhibited binding of [^3H]LSD by 50% was determined using curve fitting software (Prism). Kd values (concentration of LSD required to occupy 50% of the receptor binding sites at equilibrium) determined from saturation binding studies were then used to calculate inhibition dissociation constants (Ki) using the following equation: […]
This approach follows that set out in Kenakin, T. P. Pharmacologic analysis of drug-receptor interaction. Raven Press, New York, 2nd Edition.

[2] = target: T2, cloned human 5-HT2C receptor (Homo sapiens, UniProt P28335); assay: Human 5-HT2C receptor binding assay; conditions: [3H]mesulergine (1 nM) displacement, CHO-K1 cell membranes; read-out: 5-HT2C pKi (converted)
T2 construct: purchased Euroscreen; host or cells: CHO-K1
T2 sequence (P28335 33-458): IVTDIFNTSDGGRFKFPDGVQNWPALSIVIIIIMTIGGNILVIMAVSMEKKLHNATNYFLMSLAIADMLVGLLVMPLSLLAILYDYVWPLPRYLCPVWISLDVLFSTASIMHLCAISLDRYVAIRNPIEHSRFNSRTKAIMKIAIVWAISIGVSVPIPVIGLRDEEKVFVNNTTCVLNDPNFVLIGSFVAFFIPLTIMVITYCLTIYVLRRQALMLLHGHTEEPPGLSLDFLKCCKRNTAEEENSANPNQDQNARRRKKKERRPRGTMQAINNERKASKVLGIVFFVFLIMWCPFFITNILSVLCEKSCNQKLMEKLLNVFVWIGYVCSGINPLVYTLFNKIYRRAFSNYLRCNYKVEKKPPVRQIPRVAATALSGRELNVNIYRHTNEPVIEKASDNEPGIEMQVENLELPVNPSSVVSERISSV
Protocol: (§1) The binding affinity of ligands for human 5-HT2A and 5-HT2C receptors was determined using the following assay.
Membrane preparations from CHO-K1 cells expressing the cloned human 5-HT2C receptor were obtained (Euroscreen). The membranes were thawed rapidly and diluted in assay buffer containing Tris-HCl (50 mM, pH 7.7), ascorbic acid (0.1%) and pargyline (10 μM). The membranes were resuspended by homogenisation, prior to adding 6 μg of membranes to assay wells containing [^3H]mesulergine (1 nM), assay buffer (50 mM Tris at pH 7.7 and 0.1% ascorbic acid) containing pargyline (10 μM), and test compounds (1×10^−10 to 1×10^−4M). Non specific binding was determined in the presence of 100 μM mianserin. After 30 minutes incubation at 37° C., the assay mixture was filtered through a combination of GF-C and GF-B filters, pre-soaked in 1% bovine serum albumin, using a Brandel cell harvester, and were washed three times using ice cold Tris-HCl buffer (50 mM). Radioactivity retained on the filters was determined by liquid scintillation counting. For each test compound, the concentration that inhibited binding of [^3H]mesulergine by 50% was determined using curve fitting software (Prism). Kd values (concentration of mesulergine required to occupy 50% of the receptor binding sites at equilibrium) determined from saturation binding studies were then used to calculate inhibition dissociation constants (Ki) using the following equation: […]

[3] = target: T3, cloned human 5-HT2A receptor (Homo sapiens, UniProt P28223); assay: Human 5-HT2A receptor binding assay; conditions: [3H]ketanserin (1 nM) displacement, CHO-K1 cell membranes; read-out: 5-HT2A pKi (converted)
T3 construct: purchased Euroscreen; host or cells: CHO-K1
T3 sequence (P28223 whole entry): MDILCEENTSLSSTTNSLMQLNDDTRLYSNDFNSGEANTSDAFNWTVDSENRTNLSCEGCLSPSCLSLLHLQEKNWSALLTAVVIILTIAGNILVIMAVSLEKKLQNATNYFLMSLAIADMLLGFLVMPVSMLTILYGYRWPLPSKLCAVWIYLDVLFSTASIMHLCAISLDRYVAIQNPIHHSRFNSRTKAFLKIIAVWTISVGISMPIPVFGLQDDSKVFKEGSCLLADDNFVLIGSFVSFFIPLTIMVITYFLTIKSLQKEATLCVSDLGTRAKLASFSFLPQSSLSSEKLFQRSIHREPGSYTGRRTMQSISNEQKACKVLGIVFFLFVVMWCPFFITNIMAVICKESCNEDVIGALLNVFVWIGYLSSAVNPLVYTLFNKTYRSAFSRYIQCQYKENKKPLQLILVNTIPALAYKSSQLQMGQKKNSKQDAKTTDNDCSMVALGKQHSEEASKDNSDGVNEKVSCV
Protocol: as §1
Membrane preparations from CHO-K1 cells expressing the cloned human 5-HT2A receptor were obtained (Euroscreen). The membranes were thawed rapidly and diluted in assay buffer containing Tris-HCl (50 mM, pH 7.7). The membranes were resuspended by homogenisation, prior to adding 15 μg of membranes to assay wells containing [3H]ketanserin (1 nM), assay buffer (50 mM Tris at pH 7.4) containing pargyline (10 μM), and test compounds (1×10^−10 to 1×10^−4M). Non specific binding was determined in the presence of 100 μM mianserin. After 15 minutes incubation at 37° C., the assay mixture was filtered through a combination of GF-C and GF-B filters, pre-soaked in 0.05% Brij, using a Brandel cell harvester, and were washed three times using ice cold Tris-HCl buffer (50 mM). Radioactivity retained on the filters was determined by liquid scintillation counting. For each test compound, the concentration that inhibited binding of [^3H]ketanserin by 50% was determined using curve fitting software (Prism). Kd values (concentration of ketanserin required to occupy 50% of the receptor binding sites at equilibrium) determined from saturation binding studies were then used to calculate inhibition dissociation constants (Ki) using the following equation: […]

SMILES | Ki [1] | Ki [2] | Ki [3]
Cc1ccc(Nc2cc(C)nc(N)n2)cc1 [Compound 2U, 6-methyl-N^4-p-tolyl-pyrimidine-2,4-diamine hydrochloride] | < 1 µM | > 1 µM | > 1 µM
CC(=O)c1cccc(-c2cccc(Nc3cc(C)nc(N)n3)c2)c1 [Compound 10C, 1-[3′-(2-amino-6-methyl-pyrimidin-4-ylamino)-biphenyl-3-yl]-ethanone trifluoroacetic acid] | < 1 µM | > 0.316 µM | > 0.316 µM
Cc1cc(Nc2cc(Br)ccc2C)nc(N)n1 [Compound 2AP, N^4-(5-bromo-2-methyl-phenyl)-6-methyl-pyrimidine-2,4-diamine] | < 1 µM | > 1 µM | > 1 µM
Nc1ncc(-c2cccc(-c3ccccc3)c2)o1 [Compound 209A, 5-Biphenyl-3-yl-oxazol-2-ylamine] | < 0.316 µM | > 10 µM | > 10 µM
CC(=O)Nc1ncc(-c2sc3ccccc3c2C)[nH]1 [Compound 103O, N-[4-(3-Methyl-benzo[b]thiophen-2-yl)-1H-imidazol-2-yl]-acetamide] | < 1 µM | > 10 µM | > 10 µM
Cc1cc(Nc2cccc(-c3ccc(N(C)C)cc3)c2)nc(N)n1 [Compound 10H, N^4-(4′-dimethylamino-biphenyl-3-yl)-6-methyl-pyrimidine-2,4-diamine bis trifluoroacetic acid] | < 0.1 µM | > 0.316 µM | > 0.316 µM
Cc1cc(Nc2cccc(F)c2)nc(N)n1 [Compound 2AN, N^4-(3-fluoro-phenyl)-6-methyl-pyrimidine-2,4-diamine] | < 1 µM | > 1 µM | > 10 µM
Cc1cc(Nc2cccc(CO)c2)nc(N)n1 [Compound 2X, [3-(2-amino-6-methyl-pyrimidin-4-ylamino)-phenyl]-methanol hydrochloride] | < 1 µM | > 1 µM | > 1 µM
Cc1c(-c2cnc(N)[nH]2)sc2ccccc12 [Compound 104O, 4-(3-Methyl-benzo[b]thiophen-2-yl)-1H-imidazol-2-ylamine] | < 0.316 µM | > 0.316 µM | > 10 µM
Cc1cccc(-c2ccc(Nc3cc(C)nc(N)n3)cc2)c1 [Compound 11B] | < 0.01 µM | > 0.0316 µM | > 1 µM
Cc1oc(N)nc1-c1cccc(-c2ccccc2)c1 [Compound 218A, 4-Biphenyl-3-yl-5-methyl-oxazol-2-ylamine, trifluoroacetic acid] | < 1 µM | > 1 µM | > 1 µM
COc1c(-c2cnc(N)[nH]2)ccc2ccccc12 [Compound 104E, 4-(1-Methoxy-naphthalen-2-yl)-1H-imidazol-2-ylamine] | < 0.1 µM | > 0.1 µM | > 1 µM
Cc1cc(Nc2cccc(Br)c2C)nc(N)n1 [Compound 2T, N^4-(3-bromo-2-methyl-phenyl)-6-methyl-pyrimidine-2,4-diamine hydrochloride] | < 1 µM | > 1 µM | > 1 µM
Cc1cc(Oc2cccc3ccccc23)nc(N)n1 [Compound 4B, 4-methyl-6-(naphthalen-1-yloxy)-pyrimidin-2-ylamine] | < 0.1 µM | > 10 µM | > 10 µM
Cc1cc(Nc2cccc(O)c2)nc(N)n1 [Compound 2Q, 3-(2-amino-6-methyl-pyrimidin-4-ylamino)-phenol hydrochloride] | < 1 µM | > 1 µM | > 1 µM
Cc1cc(Oc2cccc(-c3ccccc3)c2)nc(N)n1 [Compound 4C, 4-(biphenyl-3-yloxy)-6-methylpyrimidin-2-ylamine] | < 1 µM | > 10 µM | > 10 µM
Cc1cc(Nc2ccc3ncsc3c2)nc(N)n1 [Compound 2AB, N^4-benzothiazol-6-yl-6-methyl-pyrimidine-2,4-diamine hydrochloride] | < 1 µM | > 1 µM | > 1 µM
Cc1cc(Nc2cccc(-c3cccnc3)c2)nc(N)n1 [Compound 10D, 6-methyl-N^4-(3-pyridin-3-yl-phenyl)-pyrimidine-2,4-diamine bis trifluoroacetic acid] | < 1 µM | > 1 µM | > 1 µM
Cc1[nH]c(N)nc1-c1cccc2ccccc12 [Compound 104I, 5-Methyl-4-naphthalen-1-yl-1H-imidazol-2-ylamine] | < 0.1 µM | > 1 µM | > 3.16 µM
COc1ccccc1-c1ccc(OC)c(-c2cnc(N)o2)c1 [Compound 224B, 5-(4,2′-dimethoxy-biphenyl-3-yl)-oxazol-2-ylamine, trifluoroacetic acid] | < 0.316 µM | > 1 µM | > 1 µM
COc1ccc(-c2ccccc2)cc1-c1cnc(N)o1 [Compound 224A, 5-(4-methoxy-biphenyl-3-yl)-oxazol-2-ylamine, trifluoroacetic acid] | < 1 µM | > 1 µM | > 1 µM
COc1ccc(-c2cccc(Nc3cc(C)nc(N)n3)c2)cc1OC [Compound 10B, N-(3′,4′-dimethoxy-biphenyl-3-yl)-6-methyl-pyrimidine-2,4-diamine trifluoroacetic acid] | < 1 µM | > 10 µM | > 10 µM
COc1ccc(-c2c[nH]c(NC(C)=O)n2)c2ccccc12 [Compound 103B, N-[4-(4-Methoxy-naphthalen-1-yl)-1H-imidazol-2-yl]-acetamide] | < 1 µM | > 10 µM | > 10 µM
